Results published in PubChem BioAssay (NCI).
“And” between values parts separate entries of the source, which are not always exact repeats. Equal values may be shown once.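 Protocol summary: plate cells (96-well), add compound at 5 concentrations, incubate 48 h, interpolate endpoints linearly. Here, GI50 denotes the concentration required for 50% inhibition of growth. TGI: total growth inhibition.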

Key:
Assay in all cases: NCI tumour cell line growth inhibition, 48 h
[1] = system: XF 498 CNS
[2] = system: LXFL 529 NSCLC
[3] = system: RXF-631 renal
[4] = system: KM20L2 colon
[5] = system: SNB-78 CNS
[6] = system: DMS 273 small cell lung
[7] = system: M19-MEL melanoma
[8] = system: HOP-18 NSCLC
[9] = system: MDA-N
[10] = system: P388/ADR leukemia
[11] = system: P388 leukemia
[12] = system: SN12K1 renal

N#Cc1cccc(C2SCc3nc4ccccc4n32)c1 (stereo unspecified)
TGI [1]: > 100 µM | TGI [2]: > 100 µM | TGI [3]: > 100 µM | TGI [4]: > 100 µM | TGI [5]: > 100 µM | TGI [6]: > 100 µM

Cc1cc(Br)ccc1N=NC1C(=O)ON=C1c1ccccc1 (stereo unspecified)
TGI [7]: > 100 µM | TGI [8]: > 100 µM | TGI [2]: > 100 µM | TGI [3]: > 100 µM | TGI [4]: > 100 µM | TGI [5]: > 100 µM | TGI [6]: > 100 µM

COc1cc(Br)c(C2OCCCO2)cc1OCc1ccccc1
TGI [7]: > 100 µM | TGI [2]: > 100 µM | TGI [3]: > 100 µM | TGI [4]: > 100 µM | TGI [5]: > 100 µM | TGI [6]: > 100 µM

CCn1c(O)c(C(=O)Nc2cccs2)c(=O)n(CC)c1=S
TGI [7]: 39 µM | TGI [2]: 55.7 µM | TGI [3]: 41.8 µM | TGI [4]: 32.9 µM | TGI [5]: 50.4 µM

CC(C)CC(=O)O[C@H]1C(=O)O[C@@H]2C[C@H]3[C@H](C)C(=O)C(O[C@@H]4O[C@H](CO)[C@@H](O)[C@H](O)[C@H]4O)=C[C@]3(C)[C@H]3[C@@H](O)[C@H](O)[C@]4(C(=O)O)OC[C@]32[C@@H]14
TGI [9]: > 100 µM

O=C(c1ccccc1)N1CCc2c([nH]c3ccccc23)C1
TGI [7]: > 100 µM | TGI [8]: > 100 µM | TGI [1]: 55 µM | TGI [2]: > 100 µM | TGI [3]: > 100 µM | TGI [4]: > 100 µM | TGI [6]: > 100 µM

C/C(=N\NC(N)=S)c1ccc(Oc2ccccc2)cc1
TGI [7]: 47.2 µM | TGI [8]: 80 µM | TGI [2]: 17.5 µM | TGI [3]: 43.7 µM | TGI [4]: 26.5 µM | TGI [5]: 47.7 µM | TGI [6]: 20.7 µM

BrC(/C=N/Nc1nnc(-c2ccccc2)c(-c2ccccc2)n1)C(Br)c1ccccc1 (stereo unspecified)
TGI [7]: > 100 µM | TGI [1]: 82.7 µM | TGI [3]: > 100 µM | TGI [4]: > 100 µM | TGI [5]: 78.1 µM | TGI [6]: > 100 µM

O=c1ccn([C@@H]2C[C@H](CO)CS(=O)C2)c(=O)[nH]1 (stereo partly specified)
TGI [7]: > 100 µM | TGI [8]: > 100 µM | TGI [2]: > 100 µM | TGI [4]: > 100 µM | TGI [6]: > 100 µM

CS(=O)c1cc(=O)c2ccccc2s1 (stereo unspecified)
TGI [10]: > 22.2 µM | TGI [7]: 11.9 µM | TGI [9]: 7.13 µM | TGI [8]: 19.7 µM | TGI [1]: 7.57 µM | TGI [2]: 2.9 µM | TGI [11]: 6.79 µM | TGI [4]: 13.4 µM | TGI [5]: 27.6 µM | TGI [12]: 32.8 µM | TGI [6]: 19.5 µM

CCOc1ccc(/C=C/C(=O)c2sc(NNC(C)=O)nc2C)cc1
TGI [7]: > 100 µM | TGI [8]: > 100 µM | TGI [4]: > 100 µM | TGI [5]: > 100 µM | TGI [6]: > 100 µM

CCC[CH2][Sn]1([CH2]CCC)[O]C(=O)c2cccnc2[S]1
GI50 [7]: 3.87 µM | TGI [7]: 15.4 µM | GI50 [1]: 2 µM | TGI [1]: 3.5 µM | GI50 [2]: 1.33 µM | TGI [2]: 2.98 µM | GI50 [4]: 7.72 µM | TGI [4]: 21 µM | GI50 [5]: 1.88 µM | TGI [5]: 5.76 µM | GI50 [6]: 3.38 µM | TGI [6]: 13.7 µM

COc1ccc(Cc2c3cc(OC)c(OC)cc3cc[n+]2C)cc1
TGI [7]: > 55.3 µM | TGI [8]: > 45.8 µM | TGI [1]: > 23.4 µM | TGI [2]: > 24.6 µM | TGI [3]: > 24 µM | TGI [4]: 24.3 µM | TGI [5]: > 100 µM

CCN(CC)CCN1C(=O)c2cccc3cc(N)cc(c23)C1=O
TGI [9]: 23.8 µM

C#CC[C@]12CC(=O)CC[C@H]1CC1(C2)OCCO1
TGI [7]: > 100 µM | TGI [8]: > 100 µM | TGI [2]: > 100 µM | TGI [3]: > 100 µM | TGI [4]: > 100 µM | TGI [5]: > 100 µM | TGI [6]: > 100 µM

COc1cc(CC2c3cc(OC)c(OC)cc3CCN2C)c(C(=O)O)cc1OC (stereo unspecified)
TGI [7]: > 100 µM | TGI [8]: > 100 µM | TGI [1]: > 100 µM | TGI [2]: > 100 µM | TGI [4]: > 100 µM | TGI [5]: > 100 µM | TGI [6]: > 100 µM

CC[C@H]1CNC(=O)CC1CC(=O)OC (stereo partly specified)
TGI [3]: > 100 µM | TGI [5]: > 100 µM | TGI [6]: > 100 µM

Cc1c(Cl)ccc2[s+]snc12
TGI [7]: > 100 µM | TGI [8]: 95.2 µM | TGI [1]: 55.2 µM | TGI [2]: 92 µM | TGI [3]: > 100 µM | TGI [4]: > 100 µM | TGI [5]: > 100 µM | TGI [6]: > 100 µM

C[C@H](O)CCC(=O)c1ccoc1
TGI [7]: > 100 µM | TGI [8]: > 100 µM | TGI [2]: > 100 µM | TGI [4]: > 100 µM | TGI [5]: > 100 µM | TGI [6]: > 100 µM

O=C(/C=C/c1ccccc1)c1ccccn1
TGI [9]: 30.5 µM and 67.4 µM

Cc1nc2ccccc2c(=O)n1/N=C(\N=Nc1ccc(Cl)cc1)c1ccc(N(C)C)cc1
TGI [7]: > 100 µM | TGI [8]: > 100 µM | TGI [1]: 96.3 µM | TGI [2]: > 100 µM | TGI [4]: > 100 µM | TGI [6]: > 100 µM

N#CC1(C2CC(=O)N(c3ccccc3)C2=O)CCCCC1=O (stereo unspecified)
TGI [7]: > 100 µM | TGI [8]: > 100 µM | TGI [1]: > 100 µM | TGI [2]: > 100 µM | TGI [3]: > 100 µM | TGI [5]: > 100 µM | TGI [6]: > 100 µM

O=C(Nc1cc(Cl)ccc1Cl)c1cc2ccccc2oc1=O
TGI [7]: > 100 µM | TGI [8]: 83 µM | TGI [4]: > 100 µM | TGI [6]: > 100 µM

CC1(C)OC2OC(/C=C/[N+](=O)[O-])C3OC(C)(C)OC3C2O1 (stereo unspecified)
TGI [7]: 27.7 µM | TGI [8]: 40.8 µM | TGI [2]: 10.1 µM | TGI [4]: 39.6 µM | TGI [5]: 44 µM | TGI [6]: 40.4 µM

CCCCCCCCCCCCCCCCCCCCCCC(=O)N[C@H]1CCc2cc(OC)c(OC)c(OC)c2-c2ccc(SC)c(=O)cc21
TGI [7]: > 100 µM | TGI [1]: 61.3 µM | TGI [2]: > 100 µM | TGI [3]: 51.4 µM | TGI [4]: 37.1 µM | TGI [5]: > 100 µM | TGI [6]: > 100 µM

COC(=O)N1C=Cc2c(c(C)c3c([nH]c4ccccc43)c2C)C1C (stereo unspecified)
TGI [7]: 37.6 µM | TGI [1]: 34.2 µM | TGI [2]: 43.7 µM | TGI [3]: 37.5 µM | TGI [4]: 29.3 µM | TGI [6]: 39 µM

Cc1cc2c(=O)cc(-c3ccncc3)oc2c(C(N)=O)c1C
TGI [7]: > 100 µM | TGI [8]: > 100 µM | TGI [1]: > 100 µM | TGI [2]: > 100 µM | TGI [4]: > 100 µM | TGI [5]: > 100 µM | TGI [6]: > 100 µM

O=C1C(=C2C(=O)c3ccccc3[N+]2=O)N([O-])c2ccccc21
TGI [7]: 68.4 µM | TGI [8]: 71.5 µM | TGI [2]: 43.5 µM | TGI [5]: > 100 µM | TGI [6]: 89.5 µM

CC(=O)NNc1nc(C)c(C(=O)NNC(=O)C(=O)Nc2ccc(C)cc2[N+](=O)[O-])s1
TGI [7]: > 100 µM | TGI [8]: > 100 µM | TGI [2]: > 100 µM | TGI [3]: > 100 µM | TGI [4]: > 100 µM | TGI [5]: > 100 µM | TGI [6]: > 100 µM

CCCCP1(=O)C=CC(Cl)=C(C)C1 (stereo unspecified)
TGI [7]: > 100 µM | TGI [8]: > 100 µM | TGI [2]: > 100 µM | TGI [4]: > 100 µM | TGI [5]: > 100 µM

COc1cc(/C=C(\C#N)C(=O)c2ccccc2)cc(OC)c1OC
TGI [7]: > 100 µM | TGI [8]: > 100 µM | TGI [2]: > 100 µM | TGI [4]: > 100 µM | TGI [5]: > 100 µM | TGI [6]: > 100 µM

CC(=O)Nc1ccc(/C=C/C(=O)c2sc(-n3nc(-c4ccccc4)cc3-c3ccccc3)nc2C)cc1
GI50 [7]: > 100 µM | TGI [7]: > 100 µM | GI50 [2]: > 100 µM | TGI [2]: > 100 µM | GI50 [3]: > 100 µM | TGI [3]: > 100 µM | GI50 [4]: > 100 µM | TGI [4]: > 100 µM | GI50 [6]: > 100 µM | TGI [6]: > 100 µM

CCc1cccc(CC)c1NC1=CC(=O)C(=O)c2ccccc21
TGI [7]: 17.2 µM | TGI [8]: 62.9 µM | TGI [2]: 48.8 µM | TGI [3]: > 100 µM | TGI [4]: 48.9 µM | TGI [5]: 80.6 µM | TGI [6]: 41.6 µM

O=C(N=Nc1c(O)[nH]c2c(Cl)cc(Cl)cc12)C(=O)Nc1cccc(C(F)(F)F)c1
TGI [9]: > 100 µM

O=C(/C=C/c1c[nH]c2ccccc12)c1ccccc1O
TGI [9]: 17.5 µM

O=P(c1ccccc1)(c1ccccc1)C1CC=C2CCCCCC2C1 (stereo unspecified)
TGI [7]: > 100 µM | TGI [8]: 44.2 µM | TGI [1]: 91.6 µM | TGI [2]: 46.2 µM | TGI [3]: 85.4 µM | TGI [4]: > 10 µM | TGI [5]: > 100 µM | TGI [6]: 64.5 µM
